Laboratory results: patent publication US20050228188A1, “Astaxanthin medium-chain fatty acid ester, process for producing the same and composition containing the ester” (Suntory Limited, priority 2002, published 2005)

Experiment: Digestibility of astaxanthins in rats: astaxanthin content in blood plasma and liver by HPLC after oral administration
Details: for digestibility (content of astaxanthin in blood plasma and liver) compared with astaxanthin extracted from Haematococcus (Astax9000H): rat, in vivo, po, 100 mg/kg
Procedure: Using a commercially available astaxanthin extracted from Chlorophyceae of Haematococcus (Itano, product name: Astax9000H) and astaxanthins mono- and di-esterified with a medium-chain fatty acid (Asta-C8-monoester and Asta-C8-diester), the digestibility of these astaxanthins was studied using rats. For the experiment, these astaxanthins were diluted with olive oil so as to obtain a ratio of 100 mg/kg in the conversion of a free astaxanthin, and the diluted astaxanthins were administered to rats (Wister rat). The content of astaxanthin contained in the blood (blood plasma) and the liver of each rat was measured using HPLC. The blood and liver were sampled at 3, 5, 7 and 10 hours after the administration.

| Structure (SMILES) | digestibility (content of astaxanthin in blood plasma and liver) compared with astaxanthin extracted from Haematococcus (Astax9000H) | digestibility, rank among the astaxanthins tested (rats, oral, 100 mg/kg in conversion of free astaxanthin, blood plasma and liver at 3, 5, 7 and 10 hours) |
| --- | --- | --- |
| CCCCCCCC(=O)OC1CC(C)(C)C(C=CC(C)=CC=CC(C)=CC=CC=C(C)C=CC=C(C)C=CC2=C(C)C(=O)C(O)CC2(C)C)=C(C)C1=O (stereo not drawn) [Asta-C8-monoester, astaxanthin octanoic acid monoester] | much better digestibility | most digested |
| CCCCCCCC(=O)O[C@H]1CC(C)(C)C(/C=C/C(C)=C/C=C/C(C)=C/C=C/C=C(C)/C=C/C=C(C)/C=C/C2=C(C)C(=O)[C@@H](OC(=O)CCCCCCC)CC2(C)C)=C(C)C1=O [Asta-C8-diester, astaxanthin octanoic acid diester] | much better digestibility | – |
